How the values were obtained:
[1] = DPPH radical scavenging assay; settings: 1 mM, 30 min in the dark
Description: The 2,2-diphenyl-1-picrylhydrazyl (DPPH) radical scavenging capacity of the (Z)-BPT derivatives (1 mM) was investigated using L-ascorbic acid (1 mM, vitamin C) as a positive control. […] L-Ascorbic acid scavenged 97.1% of the DPPH radical, whereas (Z)-BPT derivative 1 with a 4-hydroxyl substituent on the β-phenyl ring scavenged 46.5% of the DPPH radical.
The antioxidant properties of (Z)-BPT derivatives 1–14 against DPPH (2,2-diphenyl-1-picrylhydrazyl) radicals were examined using a DPPH radical scavenging assay, as previously described with minor modifications. DPPH solution (180 µL, 0.2 mM) in methanol was mixed with a (Z)-BPT derivative solution (1–14, 20 µL, 10 mM) in dimethyl sulfoxide in each well of a 96-well plate, and the mixture was kept for 30 min in the dark at room temperature. The absorbance at 517 nm was measured using a VersaMax ™ microplate reader (Molecular Devices, Sunnyvale, CA, USA). The capacity of the derivatives to scavenge DPPH radicals was compared with that of L-ascorbic acid, which was used as the positive control. Each experiment was run independently in triplicates.
Figure 10 The radical scavenging effect of (Z)-BPT derivatives on DPPH. The DPPH radical scavenging activities of test samples (1 mM) were assayed after being left in the dark for 30 min. Distilled water and dimethyl sulfoxide (DMSO) were utilized as the solvents for the positive control L-ascorbic acid and the (Z)-BPT derivatives, respectively. Asterisks (***) represent a significant difference between L-ascorbic acid and the (Z)-BPT derivatives, and results are expressed as the mean ± standard error of three different experiments. *** p < 0.001.

[2] = test system: tyrosinase protein expression in B16F10 cells; experiment: Western blot of tyrosinase protein in IBMX/α-MSH-stimulated cells; format: cell-based, murine; settings: for tyrosinase expression level relative to untreated control: B16F10, 20 µM, IBMX 200 µM + α-MSH 1 µM, stimulator alone 6.6-fold (for 1), 5.7-fold (for 2); for effect on tyrosinase expression levels: B16F10, 5, 10, 20 µM, IBMX + α-MSH
Description: We investigated whether the derivatives 1 and 2 could influence the expression of tyrosinase protein using Western blotting. […] At 20 µM, derivatives 1 and 2 reduced the tyrosinase expression levels that increased during the stimulator treatment to 4.4- and 3.1-fold, respectively, implying that derivatives 1 and 2 may, in part, contribute to their anti-melanogenic actions by inhibiting tyrosinase expression.
After stimulating murine melanoma (B16F10) cells with α-MSH and IBMX for 24 h in the presence or absence of the tested derivatives at the indicated concentrations, the cells were lysed with lysis buffer containing protease and phosphatase inhibitors. Protein concentrations were determined using a BCA protein assay kit, according to the manufacturer’s instructions (Pierce, Rockford, IL, USA). Lysate proteins in each sample (10–20 µg) were subjected to 9% sodium dodecyl sulfate–polyacrylamide gel electrophoresis and electrophoretically transferred to a PVDF membrane (Millipore, Billerica, MA, USA) using a semi-dry system (Bio-Rad, Hercules, CA, USA). The membranes were incubated with 5% non-fat milk in TBST (0.1 M Tris-HCl, pH 7.5, 1.5 M NaCl, and 1% Tween 20) for 2 h. After blocking, the membranes were incubated with primary antibodies at 4 °C overnight. The following antibodies were used: tyrosinase and β-actin primary antibodies, as well as horseradish peroxidase-conjugated anti-mouse and anti-goat secondary antibodies (Santa Cruz Biotechnology, Dallas, TX, USA). The protein bands were visualized using the SuperSignal West Pico Chemiluminescence assay kit (Advansta, San Jose, CA, USA) and the Davinch–Chem program (Davinch-K, Seoul, Republic of Korea). The relative intensities were acquired using CS Analyzer 3.2 (Densitograph) image analysis software (http://www.attokorea.co.kr, accessed on 21 November 2022).
Figure 13 Effects of (Z)-BPT derivatives 1 and 2 on tyrosinase expression. Tyrosinase expression levels were evaluated in the presence of a stimulator (1 µM of α-MSH plus 200 µM of IBMX) with various concentrations (5, 10, and 20 µM) of derivatives 1 and 2 in B16F10 cells. ^### p < 0.001; * p < 0.05, and ** p < 0.01.

| SMILES | DPPH radical scavenging activity [1] [%] | tyrosinase expression level relative to untreated control [2] [fold] | effect on tyrosinase expression levels [2] |
| --- | --- | --- | --- |
| O=C1N=C(c2ccccc2)S/C1=C\c1ccc(O)cc1 [Compound 1, (Z)-5-(4-Hydroxybenzylidene)-2-phenylthiazol-4(5H)-one] | 46.5 | 4.4 | significantly reduced the tyrosinase expression levels in a dose-dependent manner |
| O=C1N=C(c2ccccc2)S/C1=C\c1ccc(O)cc1O [Compound 2, (Z)-5-(2,4-Dihydroxybenzylidene)-2-phenylthiazol-4(5H)-one] | 66.9 | 3.1 | significantly reduced the tyrosinase expression levels in a dose-dependent manner |
